Results reported in article PMC5926616 (Japanese Journal of Cancer Research : Gann, 2001).

Experiments:
HCT-15 = test: XTT in vitro growth inhibition assay, parental HCT-15; format: cell-based, human; conditions: IC50 of subline divided by IC50 of parental cells; HCT-15 (parental, reference)
HCT-15/ADM2-2 = test: XTT in vitro growth inhibition assay, HCT-15/ADM2-2; format: cell-based, human; conditions: IC50 of HCT-15/ADM2-2 divided by IC50 of parental HCT-15
HCT-15/ADM2 = test: XTT in vitro growth inhibition assay, HCT-15/ADM2; format: cell-based, human; conditions: IC50 of HCT-15/ADM2 divided by IC50 of parental HCT-15
HCT-15/ADM1 = test: XTT in vitro growth inhibition assay, HCT-15/ADM1; format: cell-based, human; conditions: IC50 of HCT-15/ADM1 divided by IC50 of parental HCT-15
[1] = in contrast to cyclosporin A; cited from earlier work
P-glycoprotein-ATPase = conditions: cited from earlier work
P-glycoprotein = conditions: cited from earlier work
leukemia = conditions: randomized trials, combination chemotherapy against leukemia; cited from earlier work

`CC[C@]1(O)C[C@H]2CN(CCc3c([nH]c4ccccc34)[C@@](C(=O)OC)(c3cc4c(cc3OC)N(C=O)[C@H]3[C@@](O)(C(=O)OC)[C@H](OC(C)=O)[C@]5(CC)C=CCN6CC[C@]43[C@@H]65)C2)C1` [Vincristine] gave a Relative resistance (HCT-15) of 1, a Relative resistance (HCT-15/ADM2-2) of 2.96 and a Relative resistance (HCT-15/ADM2) of 2.19. It also gave a Relative resistance (HCT-15/ADM1) of 2.03.

`CO[C@@]12[C@H](COC(N)=O)C3=C(C(=O)C(C)=C(N)C3=O)N1C[C@@H]1N[C@@H]12` [Mitomycin C] gave a Relative resistance (HCT-15) of 1, a Relative resistance (HCT-15/ADM2-2) of 0.26 and a Relative resistance (HCT-15/ADM2) of 1.77. For the same molecule, the Relative resistance (HCT-15/ADM1) was 0.80.

Work on `O=C1c2c(O)ccc(O)c2C(=O)c2c(NCCNCCO)ccc(NCCNCCO)c21` [Mitoxantrone] yielded a Relative resistance (HCT-15) of 1, a Relative resistance (HCT-15/ADM2-2) of 3.12 and a Relative resistance (HCT-15/ADM2) of 5.40. The Relative resistance (HCT-15/ADM1) was 1.42.

`COc1cccc2c1C(=O)c1c(O)c3c(c(O)c1C2=O)C[C@@](O)(C(=O)CO)C[C@@H]3O[C@H]1C[C@H](N)[C@H](O)[C@H](C)O1` [Adriamycin] gave a Relative resistance (HCT-15) of 1, a Relative resistance (HCT-15/ADM2-2) of 7.77 and a Relative resistance (HCT-15/ADM2) of 4.40. For the same molecule, the Relative resistance (HCT-15/ADM1) was 2.23.

`COc1cccc2c1C(=O)c1c(O)c3c(c(O)c1C2=O)C[C@@](O)(C(=O)CO)C[C@@H]3O[C@H]1C[C@H](N)[C@@H](O)[C@H](C)O1` [Epirubicin] gave a Relative resistance (HCT-15) of 1, a Relative resistance (HCT-15/ADM2-2) of 4.33 and a Relative resistance (HCT-15/ADM2) of 3.34. The Relative resistance (HCT-15/ADM1) was 1.58.

In the case of `CC(=O)O[C@H]1C(=O)[C@@]2(C)[C@H]([C@H](OC(=O)c3ccccc3)[C@]3(O)C[C@H](OC(=O)[C@H](O)[C@@H](NC(=O)c4ccccc4)c4ccccc4)C(C)=C1C3(C)C)[C@]1(OC(C)=O)CO[C@@H]1C[C@@H]2O` [Taxol, paclitaxel], the Relative resistance (HCT-15) is reported as 1, the Relative resistance (HCT-15/ADM2-2) is reported as 4.81 and the Relative resistance (HCT-15/ADM2) is reported as 2.63. It also gave a Relative resistance (HCT-15/ADM1) of 2.81.

`COc1cc([C@@H]2c3cc4c(cc3[C@@H](O[C@@H]3O[C@@H]5CO[C@@H](C)O[C@H]5[C@H](O)[C@H]3O)[C@H]3COC(=O)[C@H]23)OCO4)cc(OC)c1O` [Etoposide] gave a Relative resistance (HCT-15) of 1, a Relative resistance (HCT-15/ADM2-2) of 3.16 and a Relative resistance (HCT-15/ADM2) of 2.55. The Relative resistance (HCT-15/ADM1) was 2.27.

In the case of “[3′‐keto‐Bmt^1]‐[Val^2]‐cyclosporin [Valspodar]”, the Immunosuppressive activity [1] is listed as “non-immunosuppressive”, the “Inhibition of substrate-stimulated P-glycoprotein-ATPase activity” value (P-glycoprotein-ATPase) is listed as “more potent than cyclosporin A” and the “Effect on binding of photoactive analogues of cyclosporin to P-glycoprotein” value (P-glycoprotein) is listed as “inhibited”. For the same molecule, the “Complete remission rates or survival” value (leukemia) was “failed to improve”.
